This is an account of results in US20240269139A1, “COMPOUNDS FOR TARGETED PROTEIN DEGRADATION OF KINASES” (DANA-FARBER CANCER INSTITUTE, INC., priority 2020, published 2024).

Each structure is given as a SMILES string. Read-outs that look alike come from different tables or passages of the source.

This test addresses T1, protein kinases (human kinome) (Homo sapiens, UniProt P11387).
T1 sequence (P11387 1-765): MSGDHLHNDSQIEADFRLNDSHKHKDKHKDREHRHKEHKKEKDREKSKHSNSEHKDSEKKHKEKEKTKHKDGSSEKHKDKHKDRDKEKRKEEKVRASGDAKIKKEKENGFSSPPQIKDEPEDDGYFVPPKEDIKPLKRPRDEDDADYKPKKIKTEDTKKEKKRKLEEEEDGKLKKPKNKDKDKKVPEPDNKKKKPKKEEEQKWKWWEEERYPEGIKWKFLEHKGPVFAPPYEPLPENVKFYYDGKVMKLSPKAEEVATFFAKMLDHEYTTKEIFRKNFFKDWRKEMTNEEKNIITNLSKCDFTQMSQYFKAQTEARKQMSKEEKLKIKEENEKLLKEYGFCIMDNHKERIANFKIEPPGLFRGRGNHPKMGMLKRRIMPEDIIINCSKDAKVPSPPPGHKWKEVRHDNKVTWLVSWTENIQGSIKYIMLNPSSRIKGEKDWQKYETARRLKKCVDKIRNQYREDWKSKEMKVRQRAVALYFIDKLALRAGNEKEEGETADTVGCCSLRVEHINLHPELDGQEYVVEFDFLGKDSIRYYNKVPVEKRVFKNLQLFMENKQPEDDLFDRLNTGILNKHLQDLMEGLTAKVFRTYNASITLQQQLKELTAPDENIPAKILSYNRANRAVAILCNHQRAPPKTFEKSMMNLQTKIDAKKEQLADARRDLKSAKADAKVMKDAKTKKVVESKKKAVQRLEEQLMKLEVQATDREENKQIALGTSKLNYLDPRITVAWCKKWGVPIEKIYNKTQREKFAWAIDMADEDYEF
Type of test: cell-based. To be noted: TOP1 P11387.

As to `CC(C)(C)c1nc(-c2cccc(NS(=O)(=O)c3c(F)cccc3F)c2F)c(-c2ccnc(NCCOCCNC(=O)CCOCCOCCNc3cccc4c3CN(C3CCC(=O)NC3=O)C4=O)n2)s1` (stereo not shown) [DD.03.107], the logFC (experiment wp147, 1 uM) was −0.3823; the logFC (experiment wp147, 2 uM) was −0.4234; the logFC (experiment wp147, 4 uM) is −0.4699. Consider `CC(C)(C)c1nc(-c2cccc(NS(=O)(=O)c3c(F)cccc3F)c2F)c(-c2ccnc(NCCOCCNC(=O)CCOCCOCCNc3cccc4c3C(=O)N(C3CCC(=O)NC3=O)C4=O)n2)s1` (stereo not shown) [DD.03.106], for which the logFC (experiment wp147, 4 uM) is on record as −0.4525. Where the note is “experiment wp056”, `C=CCn1c(=O)c2cnc(Nc3ccc(N4CCN(CCCNc5cccc6c5C(=O)N(C5CCC(=O)NC5=O)C6=O)CC4)cc3)nc2n1-c1cccc(C(C)(C)O)n1` (stereo not shown) [ZNL.02.096] gave a logFC of −0.3756. Turning to `CC(=O)c1c(C)c2cnc(Nc3ccc(N4CCN(CCOCCOCCOCCNC(=O)COc5cccc6c5C(=O)N(C5CCC(=O)NC5=O)C6=O)CC4)cn3)nc2n(C2CCCC2)c1=O` (stereo not shown) [BSJ.03.123], for the setting “experiment wp084”, the logFC was −0.3381. On to `Cc1ncsc1-c1ccc([C@H](C)NC(=O)[C@@H]2C[C@@H](O)CN2C(=O)[C@@H](NC(=O)CCCCCN2CCN(c3ccc(Nc4ncc5scc(-c6cccc(NS(C)(=O)=O)c6)c5n4)cc3)CC2)C(C)(C)C)cc1` [RSS0680, (2S,4R)-1-((S)-3,3-Dimethyl-2-(6-(4-(4-((7-(3-(methylsulfonamido)phenyl)thieno[3,2-d]pyrimidin-2-yl)amino)phenyl)piperazin-1-yl)hexanamido)butanoyl)-4-hydroxy-N—((S)-1-(4-(4-methylthiazol-5yl)phenyl)ethyl)pyrrolidine-2-carboxamide], for which the logFC (experiment wp080) is on record as −0.4687.
